Assay results published in patent US8815909B2, “Diaminocyclohexane compounds and uses thereof” (Bristol-Myers Squibb Company, priority 2011, dated 2014).
Where two headings read alike, the source gives them in different places.

Target: T1, human Y4 receptor (Homo sapiens, UniProt P50391)
T1 construct: expressed in transfected cells
Assay: NPY4 cAMP HTRF Agonist Assay (inhibitory cAMP assay, Gi activation by Y4 agonism)
Format: cell-based
Summary of the method: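 Y4 agonism read as lowered forskolin-stimulated cAMP (HTRF, 1 h detection at room temperature). Stable human Y4 CHO clone, 5000 cells/well, incubated 30 min at room temperature with compounds plus forskolin and IBMX in PBS.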

[1] = TABLE 2, R2 is Phenyl-CN, read-out: hY4 CAMP EC50
[2] = human Y4 receptor, cAMP, read-out: hY4 CAMP EC50
[3] = human Y4 stable CHO clonal cells, forskolin + IBMX, read-out: NPY4 cAMP HTRF Agonist Assay EC50
[4] = second TABLE 1, R2 is Phenyl-CF3, read-out: hY4 CAMP EC50
[5] = TABLE 7, R2 is Pyridinyl-oxadiazole-CH3, read-out: hY4 CAMP EC50

T1 sequence (P50391 whole entry): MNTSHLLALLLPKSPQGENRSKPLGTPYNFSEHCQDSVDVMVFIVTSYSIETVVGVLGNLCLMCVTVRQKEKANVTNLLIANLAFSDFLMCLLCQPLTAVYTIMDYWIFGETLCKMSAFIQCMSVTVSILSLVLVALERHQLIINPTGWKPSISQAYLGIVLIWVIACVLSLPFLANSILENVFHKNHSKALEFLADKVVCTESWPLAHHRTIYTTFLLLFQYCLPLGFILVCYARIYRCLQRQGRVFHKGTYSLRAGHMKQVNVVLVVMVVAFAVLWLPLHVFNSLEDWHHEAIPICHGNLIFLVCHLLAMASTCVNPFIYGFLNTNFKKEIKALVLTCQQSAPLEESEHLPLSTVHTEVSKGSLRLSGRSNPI

CC(=O)Nc1cc(-c2ccnc(N[C@@H]3CCCC[C@H]3N[C@H]3CCCN(c4ccc(C#N)cc4)C3)c2)ccn1 [Example 277]
EC50 [1]: 8 nM

Cn1nnc(-c2ccc(N3CCC[C@H](N[C@@H]4CCCC[C@H]4Nc4cc(-c5ccc(OC(F)F)cc5)ccn4)C3)cc2)n1 [Example 503]
EC50 [2]: 150 nM

COc1cccc(-c2ccnc(N[C@@H]3CCCC[C@H]3N[C@H]3CCCN(c4ccc([N+](=O)[O-])cc4)C3)n2)c1 [Example 30, (1R,2R)—N1-(4-(3-Methoxyphenyl)pyrimidin-2-yl)-N2-((S)-1-(4-nitrophenyl)piperidin-3-yl)cyclohexane-1,2-diamine]
EC50 [3]: 203 nM

N#Cc1ccc(N2C[C@@H]3C[C@H](N[C@@H]4CCCC[C@H]4Nc4ncc(-c5ccc(O)cc5)o4)[C@H]2C3)cc1 [Example 225]
EC50 [1]: 54 nM

COC(=O)Nc1cccc(-c2ccnc(N[C@@H]3CCCC[C@H]3N[C@H]3CCCN(c4ccc(C(F)(F)F)cc4)C3)c2)c1 [Example 132]
EC50 [4]: 3 nM

OCc1cccc(-c2ccnc(N[C@@H]3CCCC[C@H]3N[C@H]3CCCN(c4ccc(C(F)(F)F)cc4)C3)c2)c1 [Example 129]
EC50 [4]: 41 nM

CCNC(=O)c1cccc(-c2cnc(N[C@@H]3CCCC[C@H]3N[C@H]3CCCN(c4ccc(C(F)(F)F)cc4)C3)o2)c1 [Example 124]
EC50 [4]: 2 nM

Cc1nc(-c2ccc(N3CCC[C@](C)(N[C@@H]4CCCC[C@H]4Nc4ncc(-c5cccc(C(N)=O)c5)o4)C3)cn2)no1 [Example 389]
EC50 [5]: 13 nM

Cc1nc(-c2ncc(N3CCC[C@H](N[C@@H]4CCCC[C@H]4Nc4ncc(-c5cccc(C(N)=O)c5)o4)C3)cn2)no1 [Example 390]
EC50 [5]: 3 nM

N#Cc1ccc(N2C[C@@H]3C[C@H](N[C@@H]4CCCC[C@H]4Nc4ncc(-c5ccccc5OC(F)(F)F)o4)[C@H]2C3)cc1 [Example 224]
EC50 [1]: 2 nM

CS(=O)(=O)Nc1cccc(-c2ccnc(N[C@@H]3CCCC[C@H]3N[C@H]3CCCN(c4ccc(C#N)cc4)C3)c2)c1 [Example 242]
EC50 [1]: 3 nM

CC(C)OC(=O)Nc1cccc(-c2ccnc(N[C@@H]3CCCC[C@H]3N[C@H]3CCCN(c4ccc(C(F)(F)F)cc4)C3)c2)c1 [Example 134]
EC50 [4]: 13 nM

Cc1nc(-c2ccc(N3CCC[C@H](N[C@@H]4CCCC[C@H]4Nc4cc(-c5cccc(C(N)=O)c5)ccn4)C3)cc2)no1 [Example 347]
EC50 [2]: 0.2 nM

N#Cc1ccc(N2C[C@@H]3C[C@H](N[C@@H]4CCCC[C@H]4Nc4cc(-c5cccc(O)c5)ccn4)[C@H]2C3)cc1 [Example 228]
EC50 [1]: 1 nM

FC(F)(F)c1ccc(N2CCC[C@H](N[C@@H]3CCCC[C@H]3Nc3cc(-c4ccccc4)ccn3)C2)cc1 [Example 75, (1R,2R)—N1-(4-Phenylpyridin-2-yl)-N2-((S)-1-(4-(trifluoromethyl)phenyl)piperidin-3-yl)cyclohexane-1,2-diamine]
EC50 [3]: 252 nM

FC(F)(F)Oc1ccc(-c2cnc(N[C@@H]3CCCC[C@H]3N[C@H]3CCCN(c4ccc(I)cc4)C3)o2)cc1 [Example 93, (1R,2R)—N1-((S)-1-(4-Iodophenyl)piperidin-3-yl)-N2-(5-(4-(trifluoromethoxy)phenyl)oxazol-2-yl)cyclohexane-1,2-diamine bis-trifluoroacetate]
EC50 [3]: 33 nM

NC(=O)c1cccc(-c2cnc(N[C@@H]3CCCC[C@H]3N[C@H]3CCCN(c4ncc(C(F)(F)F)cn4)C3)o2)c1 [Example 398]
EC50 [2]: 5 nM

Cc1nnc(-c2ccc(N3CCCC(N[C@@H]4CCCC[C@H]4Nc4cc(-c5ccc(Cl)cc5)ccn4)C3)cc2)o1 (stereo partly shown) [Example 365]
EC50 [2]: 52 nM

COC(=O)Nc1cccc(-c2cnc(N[C@@H]3CCCC[C@H]3N[C@H]3CCCN(c4cnc(C(F)(F)F)nc4)C3)o2)c1 [Example 103, Methyl (3-(2-((1R,2R)-2((S)-1-(2-trifluoromethyl)pyrimidin-5-yl)piperidin-3-ylamino)cyclohexylamino)oxazol-5-yl)phenylcarbamate]
EC50 [3]: 3 nM
